Values quoted from earlier work, collected in patent publication US20180338996A1, “COMBINATION THERAPY FOR TRAUMATIC BRAIN INJURY” (UNIVERSITY OF SOUTH FLORIDA, priority 2017, published 2018).

SMILES | adverse effects in clinical use
CN(CCOc1ccc(CC2SC(=O)NC2=O)cc1)c1ccccn1 (centres unmarked) [rosiglitazone] | weight gain, fluid retention, congestive heart failure, and bone fractures
CCc1ccc(CCOc2ccc(CC3SC(=O)NC3=O)cc2)nc1 (centres unmarked) [PG, pioglitazone] | weight gain, fluid retention, congestive heart failure, and bone fractures
